Several values for one entry are separate records, joined by “and”; a condition that tells them apart may be missing. Equal entries are not always repeated. Where two headings read alike, the source gives them in different places. Where no end group is shown, it is not given here.
Assays:
human α6/α3β4 nAChR = target: T1, human α6/α3β4 nAChR (Homo sapiens, UniProt P30926+P32297+Q15825); assay type: cell-based
T1 construct: expressed in transfected cells; host or cells: Xenopus laevis oocytes (cRNA injection, 1:1 ratio)
T1 sequence (P30926 whole entry, looked up): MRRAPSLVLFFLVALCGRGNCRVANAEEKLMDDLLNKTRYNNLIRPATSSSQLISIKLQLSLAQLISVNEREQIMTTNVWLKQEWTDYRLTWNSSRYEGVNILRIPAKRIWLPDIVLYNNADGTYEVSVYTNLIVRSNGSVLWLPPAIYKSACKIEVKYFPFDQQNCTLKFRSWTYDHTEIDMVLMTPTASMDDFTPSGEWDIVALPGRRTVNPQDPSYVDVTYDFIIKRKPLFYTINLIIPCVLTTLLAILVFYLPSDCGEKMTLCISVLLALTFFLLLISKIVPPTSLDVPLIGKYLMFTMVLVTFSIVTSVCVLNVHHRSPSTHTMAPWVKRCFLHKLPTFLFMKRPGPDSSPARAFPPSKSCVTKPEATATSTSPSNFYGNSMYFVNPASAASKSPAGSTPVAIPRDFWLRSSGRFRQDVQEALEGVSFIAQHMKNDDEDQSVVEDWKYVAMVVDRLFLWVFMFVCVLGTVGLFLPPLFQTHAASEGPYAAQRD
T1 sequence (P32297 whole entry, looked up): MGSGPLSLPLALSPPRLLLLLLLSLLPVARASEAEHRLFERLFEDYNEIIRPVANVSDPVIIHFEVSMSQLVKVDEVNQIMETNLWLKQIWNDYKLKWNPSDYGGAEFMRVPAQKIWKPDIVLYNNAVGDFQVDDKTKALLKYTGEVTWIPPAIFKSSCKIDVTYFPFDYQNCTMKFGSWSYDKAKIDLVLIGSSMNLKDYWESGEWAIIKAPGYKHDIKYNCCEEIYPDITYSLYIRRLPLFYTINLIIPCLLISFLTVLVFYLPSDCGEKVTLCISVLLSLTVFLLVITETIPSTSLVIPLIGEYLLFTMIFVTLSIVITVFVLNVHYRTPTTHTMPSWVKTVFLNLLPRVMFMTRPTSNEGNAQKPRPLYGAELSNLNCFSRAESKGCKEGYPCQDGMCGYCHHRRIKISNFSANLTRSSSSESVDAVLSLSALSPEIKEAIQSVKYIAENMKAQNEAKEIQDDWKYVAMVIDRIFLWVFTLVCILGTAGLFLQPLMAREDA
T1 sequence (Q15825 whole entry, looked up): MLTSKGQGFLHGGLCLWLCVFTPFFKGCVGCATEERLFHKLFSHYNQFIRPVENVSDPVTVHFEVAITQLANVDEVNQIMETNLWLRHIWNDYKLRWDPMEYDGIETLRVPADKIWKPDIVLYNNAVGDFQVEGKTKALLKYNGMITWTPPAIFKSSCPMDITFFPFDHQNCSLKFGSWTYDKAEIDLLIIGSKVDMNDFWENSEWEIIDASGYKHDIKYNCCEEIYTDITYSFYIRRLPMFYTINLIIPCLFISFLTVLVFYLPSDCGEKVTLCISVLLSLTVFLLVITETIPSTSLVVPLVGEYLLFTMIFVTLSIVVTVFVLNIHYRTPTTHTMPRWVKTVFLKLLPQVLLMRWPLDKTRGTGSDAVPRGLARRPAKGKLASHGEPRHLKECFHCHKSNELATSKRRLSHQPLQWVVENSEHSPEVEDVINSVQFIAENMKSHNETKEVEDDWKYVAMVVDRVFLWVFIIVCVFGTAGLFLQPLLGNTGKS

[1] = test system: nAChRs in monkey adrenal chromaffin cells; test: Agonist-evoked currents, perforated-patch patch-clamp, monkey adrenal chromaffin cells; assay type: cell-based, monkey (Macaca mulatta); conditions: for current amplitude (choline comparison cells): 10 mM choline versus 300 μM ACh in the same cells
[2] = test system: heteromeric receptor subtypes that contain the β2 subunit; parameters: method as in PMID 10692507; conditions: β2-containing heteromeric receptors; ref [38]; cited from earlier work
M. mulatta α7 nAChRs = conditions: heterologously expressed M. mulatta α7; ref [37]; cited from earlier work
[3] = test system: release of dopamine from dopaminergic terminals of mouse striatal neurons; conditions: cited from earlier work
[4] = test system: release of dopamine from dopaminergic terminals of rat striatal neurons; conditions: cited from earlier work

## Ic1cncc(OC[C@@H]2CCN2)c1 [5-I-A-85380]
Human α6/α3β4 nAChR
  current amplitude as % of that produced by 300 μM ACh in the same cells: 100±12.1% and 100±12%
  efficacy versus 300 μM ACh, in words: as efficacious as 300 μM ACh
[1]
  efficacy versus 300 μM ACh, in words: more efficacious than 300 μM ACh
  response to agonist, in words: responded
[1]; n = 4
  current amplitude (5-I-A-85380 comparison cells): 1088±120 pA
  current amplitude relative to ACh (printed "% larger than the currents evoked by ACh"): 170±16%
  current density: 256±28 pA/pF
[2]
  affinity in words: high affinity

## CC(=O)OCC[N+](C)(C)C [ACh, acetylcholine]
[1]; 100 μM 5-I-A-85380 versus 300 μM ACh in the same cells, n = 4, ± S.E.M.
  current amplitude (5-I-A-85380 comparison cells): 657± 97 pA
[1]; 100 μM 5-I-A-85380 versus 300 μM ACh in the same cells, n = 4, ± S.E.M., difference not statistically significant, p = 0.0625
  current density: 149±22 pA/pF
[1]; 300 μM ACh, mean ± S.D.M, n = 18, holding potential −80 mV, 200 ms pulses
  peak current amplitude: 865 ± 387 pA
[1]; n = 4, ± S.E.M.
  current amplitude (choline comparison cells): 1245±238 pA

## C[N+](C)(C)CCO [choline]
M. mulatta α7 nAChRs
  agonist activity in words: full agonist
[1]; n = 4, ± S.E.M.
  current amplitude (choline comparison cells): 21±4 pA
[1]; 10 mM choline, n = 4, ± S.E.M., holding potential −80 mV
  current amplitude as % of response evoked by 300 μM ACh in the same cells: 1.7±0.1%
[1]; cells with currents evoked by acetylcholine
  response to agonist, in words: relatively unresponsive

## α-Ctx MII (GCCSNPVCHLEHSNLC; ends and bridges not checked; cysteine pairing not given here; UniProt P56636 49-64, looked up)
[3]
  sensitivity of dopamine release to toxin, in words: sensitive
[4]
  sensitivity of dopamine release to toxin, in words: sensitive

Source: paper PMC3984115 (PLoS ONE, 2014)
